# Data from patent EP4080216A1, “METHODS DETERMINING THE POTENTIAL OF DRUGS FOR TREATING BACTERIAL INFECTIONS AND COMPOSITION FOR TREATING BACTERIAL INFECTIONS” (priority 2021, dated 2022).
# “Also recorded” adds a separate entry of the source.
# Assays:
# [1] = tested on: CD14; assay: bead assay: binding of fluorescent FimH-expressing (ON) bacteria to CD14-coupled magnetic beads, flow cytometry; parameters: species or system murine
# Method: In one embodiment, the CD14 protein is a recombinant chimeric protein. In a preferred embodiment, the CD14 protein comprises the murine N-terminal of CD14 which is bound to protein A on the magnetic beads via the Fc tail. In another embodiment, the magnetic beads are pre-coated with protein A. In one preferred embodiment, a fluorescent marker is stably integrated into the DNA of the bacteria. The stable integration of a fluorescent marker into the bacteria DNA is performed by any conventional means known to the skilled person such as by transforming the bacteria with a conditional-replication, integration, and modular (CRIM) plasmid. In another embodiment, the fluorescent marker is transiently integrated into the DNA of the bacteria. The transient integration of a fluorescent marker into the bacteria DNA is performed by any conventional means known to the skilled person such as by transforming the bacteria with a plasmid harbouring the fluorescent marker. In another embodiment, the DNA is visualized by a fluorescent marker added after step f). In a preferred embodiment, the fluorescent marker added after step f) is a fluorescent dye. In the latter embodiment, the fluorescent marker or fluorescent dye is thiazole orange, Hoechst 3342, Hoechst 3358, or carboxyfluorescein diacetate (CFDA) and its derivatives. In one embodiment, the infection causing type I piliated gram-negative bacteria are causing neonatal meningitis. In another embodiment, the infection causing type I piliated gram-negative bacteria are causing inflammatory bowel diseases such as Crohn's disease or ulcerative colitis. In one embodiment, the infection causing type I piliated gram-negative bacteria causes Crohn's disease. In another embodiment, the infection causing type I piliated gram-negative bacteria causes ulcerative colitis. In yet another embodiment, the infection causing type I piliated gram-negative bacteria causes gastrointestinal disorders or gastrointestinal diseases such as salmonellosis. In a preferred embodiment, the infection causing type I piliated gram-negative bacteria cause urinary tract infections. In a particularly preferred embodiment, the type I piliated gram-negative bacteria causing urinary tract infections are uropathogenic E. coli. In one embodiment, the incubation of the type I piliated gram-negative bacteria with the CD14-coupled magnetic beads and the added drug or compound lasts between ten minutes and six hours. In one embodiment, the incubation takes between 30 minutes and three hours. In a particularly preferred embodiment, the incubation takes between 45 and 90 minutes. In one embodiment, the added drug or compound is an inhibitor, antibody or antibiotic. […]
# [2] = tested on: Hox8b-derived murine dendritic cells; assay: adhesion assay: adhesion of dendritic cells infected with type I piliated (ON) bacteria, Hoechst fluorescence plate reader and brightfield images; assay type: cell-based; conditions: ON bacteria at multiplicity of infection of 10, 18 to 20 hours post infection
# Method: In one embodiment, the dendritic cells are dendritic cells from any mammalian species such as human, primate, mouse, cow, pig, dog, goat, rabbit, rat and cow. In one embodiment, the dendritic cells are human or murine dendritic cells. In another embodiment, the dendritic cells are established dendritic cell lines. In another embodiment, the dendritic cells are human dendritic cell lines such as Thp-1, HL-60, MUTZ-3, U937, KG-1 and PDMC05. In one embodiment, the dendritic cells are cultured in regular cell culture dishes or cell culture plates known to the skilled person in the art. In another embodiment, the cell culture dishes or cell culture plates are treated with different extracellular matrix components such as fibronectin or fibrinogen or combinations thereof. In another embodiment, genetically modified dendritic cells are used. In a preferred embodiment, the genetically modified dendritic cells express a fluorescent marker. In a particularly preferred embodiment, the genetically modified dendritic cells have a fluorescently labelled actin cytoskeleton. In a particularly preferred embodiment, the genetically modified dendritic cells express LifeAct®-GFP and therefore, have a fluorescently labelled actin cytoskeleton. In one embodiment, the dendritic cells are infected with the bacteria at a multiplicity of infection of 1-100 (1-100 bacteria per 1 dendritic cell). The skilled person is aware that infected dendritic cells are activated dendritic cells. In another embodiment, the dendritic cells are infected with the bacteria at a multiplicity of infection of 1-30 (1-30 bacteria per 1 dendritic cell). In a particularly preferred embodiment, the dendritic cells are infected with the bacteria at a multiplicity of infection of 10 (10 bacteria per 1 dendritic cell). In one embodiment, the infection causing type I piliated gram-negative bacteria are causing neonatal meningitis. In another embodiment, the infection causing type I piliated gram-negative bacteria are causing inflammatory bowel diseases such as Crohn's disease or ulcerative colitis. In one embodiment, the infection causing type I piliated gram-negative bacteria causes Crohn's disease. In another embodiment, the infection causing type I piliated gram-negative bacteria causes ulcerative colitis. In yet another embodiment, the infection causing type I piliated gram-negative bacteria causes gastrointestinal disorders or gastrointestinal diseases such as salmonellosis. In a preferred embodiment, the infection causing type I piliated gram-negative bacteria cause urinary tract infections. In a particularly preferred embodiment, the type I piliated gram-negative bacteria causing urinary tract infections are uropathogenic E. coli. […]
compound,measurement,setting,value
Cc1c2c(c(O)c3c(O)cccc13)C(=O)[C@]1(O)C(=O)C(C(N)=O)=C(O)[C@@H](N(C)C)[C@@H]1C2 [anhydrotetracycline],prevent binding of ON bacteria to CD14-coupled beads,"[1]; sub-minimal inhibitory concentrations, ON bacteria",not able to prevent binding
same,adhesion of dendritic cells,[2]; concentration not given,increased adhesion even further; also recorded: significantly increased adhesion
CNC(=O)c1cc(C(=O)NC)cc(-c2ccc(O[C@H]3O[C@H](CO)[C@@H](O)[C@H](O)[C@@H]3O)c(C)c2)c1 [M4284],inhibit binding of ON bacteria to CD14-coupled beads,"[1]; 10 µM, UPEC ON bacteria, one hour at 4 °C",prevented binding; also recorded: able to inhibit binding
same,adhesion of dendritic cells,[2]; 10 µM,resulted in decreased adhesion; also recorded: partially able to do so
D-mannose,block binding of ON bacteria to CD14,"[1]; 175 µM, UPEC ON bacteria, one hour at 4 °C",not sufficient to block binding
same,inhibit binding of ON bacteria to CD14-coupled beads,"[1]; 1 mM, UPEC ON bacteria, one hour at 4 °C",prevented binding; also recorded: able to inhibit binding
same,adhesion of dendritic cells,[2]; 175 µM,did not decrease adhesion
same,adhesion of dendritic cells,[2]; 1 mM,resulted in decreased adhesion; also recorded: partially able to do so
